Patent US9598420B2, “Benzodiazepine bromodomain inhibitor” (GlaxoSmithKline LLC, priority 2009, dated 2017)

Assays:
[1] = test system: LPS induced IL-6 secretion from whole blood; experiment: Measurement of LPS Induced IL-6 Secretion from Whole Blood; type: cell-based; details: LPS 200 ng/ml, 24 hours, immunoassay, read-out: pIC50 (IL-6 levels) (converted)
Protocol: Activation of monocytic cells by agonists of toll-like receptors such as bacterial lipopolysaccharide (LPS) results in production of key inflammatory mediators including IL-6. Such pathways are widely considered to be central to the pathophysiology of a range of auto-immune and inflammatory disorders.
After further incubation for 24 hours at 37 degrees, 140 ul of PBS are added to each well. The plates are sealed, shaken for 10 minutes and then centrifuged (2500 rpm×10 min). 100 ul of the supernatant are removed and IL-6 levels assayed by immunoassay (typically by MesoScale Discovery technology) either immediately or following storage at −20 degrees.

| SMILES | melting point | IC50 [1] |
| --- | --- | --- |
| Cc1nnc2n1-c1ccc(O)cc1C(c1ccc(Cl)cc1)=N[C@H]2CC(=O)Nc1ccc(F)cc1 | 222 °C (dec.) | – |
| COc1ccc2c(c1)C(c1ccc(Cl)cc1)=N[C@@H](CC(=O)NC1CCCCC1)c1nnc(C)n1-2 (stereo in doubt) | > 260 °C | – |
| COc1ccc2c(c1)C(c1ccc(Cl)cc1)=N[C@@H](CC(=O)Nc1ccccc1F)c1nnc(C)n1-2 [Example 9, 2-[(4S)-6-(4-chlorophenyl)-1-methyl-8-(methyloxy)-4H-[1,2,4]triazolo[4,3-a][1,4]benzodiazepin-4-yl]-N-(2-fluorophenyl)acetamide] | 264 °C | ≤ 10 µM |
| COc1ccc2c(c1)C(c1ccc(Cl)cc1)=N[C@@H](CC(=O)Nc1cccc(F)c1)c1nnc(C)n1-2 [Example 10, 2-[(4S)-6-(4-chlorophenyl)-1-methyl-8-(methyloxy)-4H-[1,2,4]triazolo[4,3-a][1,4]benzodiazepin-4-yl]-N-(3-fluorophenyl)acetamide] | 248 °C | ≤ 10 µM |
| COc1ccc2c(c1)C(c1ccc(Cl)cc1)=N[C@@H](CC(=O)Nc1ccncc1)c1nnc(C)n1-2 [Example 14, 2-[(4S)-6-(4-chlorophenyl)-1-methyl-8-(methyloxy)-4H-[1,2,4]triazolo[4,3-a][1,4]benzodiazepin-4-yl]-N-4-pyridinylacetamide] | 223 °C | – |
| COc1ccc2c(c1)C(c1ccc(Cl)cc1)=N[C@@H](CC(=O)Nc1nccs1)c1nnc(C)n1-2 [Example 15, 2-[(4S)-6-(4-chlorophenyl)-1-methyl-8-(methyloxy)-4H-[1,2,4]triazolo[4,3-a][1,4]benzodiazepin-4-yl]-N-1,3-thiazol-2-ylacetamide] | 249 °C | ≤ 10 µM |
